Data on 28 molecules can be found in patent US11136296B2, “Substituted N-arylethyl-2-arylquinoline-4-carboxamides and use thereof” (Bayer Aktiengesellschaft, priority 2017, dated 2021).

Where only a bound is given, the exact number is not on record here.

For this assay, the target named is FP receptor (Homo sapiens (Human), UniProt P43088). The assay is described as follows: In vitro test of inhibition of human FP receptor activity (PGF2α-induced calcium flux in FP-expressing CHEM1 cells). It is filed as cell-based. The settings on record: PGF2α-induced (2 nM) calcium flux in FP-expressing CHEM1 cells; some as mean values from multiple determinations. An excerpt: Table 1 below lists the IC50 values from this assay for individual working examples of the invention (some as mean values from multiple independent individual determinations): […]
Chain of FP receptor (P43088 whole entry): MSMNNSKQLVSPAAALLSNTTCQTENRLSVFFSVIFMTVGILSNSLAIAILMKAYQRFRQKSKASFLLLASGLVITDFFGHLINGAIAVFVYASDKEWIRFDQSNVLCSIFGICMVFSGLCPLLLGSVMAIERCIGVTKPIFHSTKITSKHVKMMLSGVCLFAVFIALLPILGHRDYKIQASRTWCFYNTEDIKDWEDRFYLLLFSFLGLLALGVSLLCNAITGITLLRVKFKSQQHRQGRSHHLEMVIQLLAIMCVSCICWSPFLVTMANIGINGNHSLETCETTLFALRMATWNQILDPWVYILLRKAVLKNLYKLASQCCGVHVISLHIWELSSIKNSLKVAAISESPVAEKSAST
As to `Cc1ccc(C(CNC(=O)c2c(C)c(-c3ccccc3)nc3ccc(Br)cc23)CC(=O)O)cc1` (single isomer, unassigned; (+)) [Example 91, (+)-4-{[(6-Bromo-3-methyl-2-phenylquinolin-4-yl)carbonyl]amino}-3-(4-methylphenyl)butanoic Acid], the IC50 was 460 nM.

For `Cc1c(-c2ccccc2)nc2ccc(Br)cc2c1C(=O)NCC(CC(=O)O)c1ccccc1OC(F)(F)F` (single isomer, unassigned; (+)) [Example 101, (+)-4-{[(6-Bromo-3-methyl-2-phenylquinolin-4-yl)carbonyl]amino}-3-[2-(trifluoromethoxy)phenyl]butanoic Acid], the IC50 worked out at 32 nM.

Consider `Cc1c(-c2ccccc2)nc2ccc(Br)cc2c1C(=O)NCC(CC(=O)O)c1ccccn1` (single isomer, unassigned; (+)) [Example 104, (+)-4-{[(6-Bromo-3-methyl-2-phenylquinolin-4-yl)carbonyl]amino}-3-(pyridin-2-yl)butanoic Acid], for which the IC50 is greater than 1000 nM.

As to `Cc1c(-c2ccccc2)nc2ccc(Br)cc2c1C(=O)NCC(CC(=O)O)c1ccccc1C(F)(F)F` (single isomer, unassigned; (+)) [Example 106, (+)-4-{[(6-Bromo-3-methyl-2-phenylquinolin-4-yl)carbonyl]amino}-3-[2-(trifluoromethyl)phenyl]butanoic Acid], the half-maximal inhibitory concentration (IC50) worked out at 280 nM.

On to `COc1cccnc1C(CNC(=O)c1c(C)c(-c2ccccc2)nc2ccc(Br)cc12)CC(=O)O` (single isomer, unassigned; (+)) [Example 110, (+)-4-{[(6-Bromo-3-methyl-2-phenylquinolin-4-yl)carbonyl]amino}-3-(3-methoxypyridin-2-yl)butanoic Acid], for which the IC50 was 75 nM.

`Cc1c(-c2ccccc2)nc2ccc(Br)cc2c1C(=O)NCC(C)(CC(=O)O)c1ccccc1F` (single isomer, unassigned; (+)) [Example 115, (+)-4-{[(6-Bromo-3-methyl-2-phenylquinolin-4-yl)carbonyl]amino}-3-(2-fluorophenyl)-3-methylbutanoic Acid]: the IC50 amounted to 31 nM.

As to `Cc1c(-c2ccccc2)nc2ccc(Br)cc2c1C(=O)NCC(C)(CC(=O)O)c1ccccn1` (single isomer, unassigned; (+)) [Example 118, (+)-4-{[(6-Bromo-3-methyl-2-phenylquinolin-4-yl)carbonyl]amino}-3-methyl-3-(pyridin-2-yl)butanoic Acid], the IC50 amounted to 280 nM.

`COc1ccccc1C(C)(CNC(=O)c1c(C)c(-c2ccccc2)nc2ccc(Br)cc12)CC(=O)O` (single isomer, unassigned; (+)) [Example 121, (+)-4-{[(6-Bromo-3-methyl-2-phenylquinolin-4-yl)carbonyl]amino}-3-(2-methoxyphenyl)-3-methylbutanoic Acid]: the IC50 stood at 10 nM.

Consider `COc1ccc(F)cc1C(CNC(=O)c1c(C)c(-c2ccccc2)nc2ccc(Br)cc12)CC(=O)O` (single isomer, unassigned; (+)) [Example 124, (+)-4-{[(6-Bromo-3-methyl-2-phenylquinolin-4-yl)carbonyl]amino}-3-(5-fluoro-2-methoxyphenyl)butanoic Acid], for which the IC50 was 5.3 nM.

Regarding `COc1cccc(F)c1C(CNC(=O)c1c(C)c(-c2ccccc2)nc2ccc(Br)cc12)CC(=O)O` (single isomer, unassigned; (+)) [Example 127, (+)-4-{[(6-Bromo-3-methyl-2-phenylquinolin-4-yl)carbonyl]amino}-3-(2-fluoro-6-methoxyphenyl)butanoic Acid], the IC50 came out at 25 nM.

For the molecule `CCOc1ccccc1C(CNC(=O)c1c(C)c(-c2ccccc2)nc2ccc(Br)cc12)CC(=O)O` (single isomer, unassigned; (+)) [Example 131, (+)-4-{[(6-Bromo-3-methyl-2-phenylquinolin-4-yl)carbonyl]amino}-3-(2-ethoxyphenyl)butanoic Acid], the IC50 is 99 nM.

As for `COc1ccc(F)cc1C(C)(CNC(=O)c1c(C)c(-c2ccccc2)nc2ccc(Br)cc12)CC(=O)O` (single isomer, unassigned; (+)) [Example 133, (+)-4-{[(6-Bromo-3-methyl-2-phenylquinolin-4-yl)carbonyl]amino}-3-(5-fluoro-2-methoxyphenyl)-3-methylbutanoic Acid], the IC50 came out at 47 nM.

Take `COc1c(F)cc(F)cc1C(C)(CNC(=O)c1c(C)c(-c2ccccc2)nc2ccc(Br)cc12)CC(=O)O` (single isomer, unassigned; (+)) [Example 136, (+)-4-{[(6-Bromo-3-methyl-2-phenylquinolin-4-yl)carbonyl]amino}-3-(3,5-difluoro-2-methoxyphenyl)-3-methylbutanoic Acid]: the IC50 was 13 nM.

For `COc1cc(F)ccc1C(C)(CNC(=O)c1c(C)c(-c2ccccc2)nc2ccc(Br)cc12)CC(=O)O` (single isomer, unassigned; (+)) [Example 139, (+)-4-{[(6-Bromo-3-methyl-2-phenylquinolin-4-yl)carbonyl]amino}-3-(4-fluoro-2-methoxyphenyl)-3-methylbutanoic Acid], the half-maximal inhibitory concentration (IC50) stood at 28 nM.

In the case of `COc1cccc(F)c1C(C)(CNC(=O)c1c(C)c(-c2ccccc2)nc2ccc(Br)cc12)CC(=O)O` (single isomer, unassigned; (+)) [Example 143, (+)-4-{[(6-Bromo-3-methyl-2-phenylquinolin-4-yl)carbonyl]amino}-3-(2-fluoro-6-methoxyphenyl)-3-methylbutanoic Acid], the IC50 worked out at 6.8 nM.

With `Cc1c(-c2ccccc2)nc2ccc(Br)cc2c1C(=O)NC(C)C(CC(=O)O)c1ccccc1Cl` (single isomer, unassigned; (+)) [Example 147, (+)-4-{[(6-Bromo-3-methyl-2-phenylquinolin-4-yl)carbonyl]amino}-3-(2-chlorophenyl)pentanoic Acid], the IC50 is greater than 1000 nM.

Consider `Cc1c(-c2ccccc2)nc2ccc(Br)cc2c1C(=O)NC(C)C(CC(=O)O)c1ccccc1Cl` (single isomer, unassigned; (+)) [Example 150, (+)-4-{[(6-Bromo-3-methyl-2-phenylquinolin-4-yl)carbonyl]amino}-3-(2-chlorophenyl)pentanoic Acid], for which the IC50 was found to be 960 nM.

For the molecule `Cc1c(-c2ccccc2)nc2ccc(Br)cc2c1C(=O)NCC(C)(CCC(=O)O)c1ccccc1Cl` (single isomer, unassigned; (+)) [Example 156, (+)-5-{[(6-Bromo-3-methyl-2-phenylquinolin-4-yl)carbonyl]amino}-4-(2-chlorophenyl)-4-methylpentanoic Acid], the IC50 was 8 nM.

Turning to `Cc1c(-c2ccccc2)nc2ccc(Br)cc2c1C(=O)NCC(CCC(=O)O)c1c(F)cccc1Cl` (single isomer, unassigned; (+)) [Example 159, (+)-5-{[(6-Bromo-3-methyl-2-phenylquinolin-4-yl)carbonyl]amino}-4-(2-chloro-6-fluorophenyl)pentanoic Acid], the IC50 worked out at 24 nM.

As to `Cc1ccccc1C(CCC(=O)O)CNC(=O)c1c(C)c(-c2ccccc2)nc2ccc(Br)cc12` (single isomer, unassigned; (+)) [Example 162, (+)-5-{[(6-Bromo-3-methyl-2-phenylquinolin-4-yl)carbonyl]amino}-4-(2-methylphenyl)pentanoic Acid], the IC50 was 33 nM.

`Cc1c(-c2ccccc2)nc2ccc(Br)cc2c1C(=O)NCC(CCC(=O)O)c1cc(F)ccc1Cl` (single isomer, unassigned; (+)) [Example 165, (+)-5-{[(6-Bromo-3-methyl-2-phenylquinolin-4-yl)carbonyl]amino}-4-(2-chloro-5-fluorophenyl)pentanoic Acid]: the concentration for half-maximal inhibition (IC50) was 6.6 nM.

Consider `COc1ccccc1C(CCC(=O)O)CNC(=O)c1c(C)c(-c2ccccc2)nc2ccc(Br)cc12` (single isomer, unassigned; (+)) [Example 168, (+)-5-{[(6-Bromo-3-methyl-2-phenylquinolin-4-yl)carbonyl]amino}-4-(2-methoxyphenyl)pentanoic Acid], for which the IC50 turned out to be 3.6 nM.

In the case of `Cc1c(-c2ccccc2)nc2ccc(Br)cc2c1C(=O)NCC(C)(CCC(=O)O)c1cc(F)ccc1Cl` (single isomer, unassigned; (+)) [Example 171, (+)-5-{[(6-Bromo-3-methyl-2-phenylquinolin-4-yl)carbonyl]amino}-4-(2-chloro-5-fluorophenyl)-4-methylpentanoic Acid], the IC50 is 11 nM.

`Cc1c(-c2ccccc2)nc2ccc(Br)cc2c1C(=O)NCC(CCC(=O)O)c1ccccc1F` (single isomer, unassigned; (+)) [Example 177, (+)-5-{[(6-Bromo-3-methyl-2-phenylquinolin-4-yl)carbonyl]amino}-4-(2-fluorophenyl)pentanoic Acid]: the IC50 was found to be 19 nM.

As for `Cc1c(-c2ccccc2)nc2ccc(Br)cc2c1C(=O)NCC(CCC(=O)O)c1ccccc1OC(F)F` (single isomer, unassigned; (+)) [Example 180, (+)-5-{[(6-Bromo-3-methyl-2-phenylquinolin-4-yl)carbonyl]amino}-4-[2-(difluoromethoxy)phenyl]pentanoic Acid], the IC50 came out at 8.2 nM.

As for `Cc1c(-c2ccccc2)nc2ccc(Br)cc2c1C(=O)NCC(CCC(=O)O)c1c(F)cccc1F` (single isomer, unassigned; (+)) [Example 183, (+)-5-{[(6-Bromo-3-methyl-2-phenylquinolin-4-yl)carbonyl]amino}-4-(2,6-difluorophenyl)pentanoic Acid], the IC50 worked out at 23 nM.

As to `Cc1c(-c2ccccc2)nc2ccc(Br)cc2c1C(=O)NCC(CCC(=O)O)c1cccc(F)c1Cl` (single isomer, unassigned; (+)) [Example 186, (+)-5-{[(6-Bromo-3-methyl-2-phenylquinolin-4-yl)carbonyl]amino}-4-(2-chloro-3-fluorophenyl)pentanoic Acid], the IC50 was found to be 17 nM.

As for `Cc1c(-c2ccccc2)nc2ccc(Br)cc2c1C(=O)NCC(c1ccccc1Cl)N(C)CC(=O)O` (single isomer, unassigned; (+)) [Example 189, (+)-N-[2-{[(6-Bromo-3-methyl-2-phenylquinolin-4-yl)carbonyl]amino}-1-(2-chlorophenyl)ethyl]-N-methylglycine], the half-maximal inhibitory concentration (IC50) was found to be 62 nM.
